Reference: patent US9284321B2, “Piperazino[1,2-a]indol-1-ones and [1,4]diazepino[1,2-a]indol-1-one” (Hoffmann-La Roche Inc., priority 2012, dated 2016)

Key:
[1] = system: human embryonic stem cell derived neural stem cells (NSCs); assay: Neural Stem Cell Proliferation Assay (neurogenesis assay, ATP levels by CellTiterGlo); type: cell-based; settings: 96 h, compound concentration at which 150% activity of control (100%) is reached, NSC proliferation by ATP level after 4 days incubation, dose response 8 μM to 8 nM
How it was run: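 Read-out is CellTiterGlo ATP luminescence after 4-day culture (37 °C, 5% CO2) of dual-SMAD-derived human ESC NSCs, dosed 4 h post-seeding at 8 μM to 8 nM (11 points, 2-fold). EC150 marks the concentration reaching 150% of the media-only control (0.25% DMSO).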

| melting point | Structure (SMILES) | EC (150% of control) [1] |
| --- | --- | --- |
| 274 °C | Cc1c2n(c3c(-c4ccc(Cl)cc4Cl)cc(C#N)cc13)CCNC2=O [Example 167, 6-(2,4-Dichloro-phenyl)-10-methyl-1-oxo-1,2,3,4-tetrahydro-pyrazino[1,2-a]indole-8-carbonitrile] | 0.002 µM |
| 317.5 °C | O=C1NCCn2c1cc1c(F)c(F)cc(-c3ccc(F)c(F)c3)c12 [Example 35, 6-(3,4-Difluoro-phenyl)-8,9-difluoro-3,4-dihydro-2H-pyrazino[1,2-a]indol-1-one] | 2.6 µM |
| 290.5 °C | Cc1c2n(c3c(-c4ccnc(F)c4)cc(Cl)cc13)CCNC2=O [Example 108, 8-Chloro-6-(2-fluoro-pyridin-4-yl)-10-methyl-3,4-dihydro-2H-pyrazino[1,2-a]indol-1-one] | 0.021 µM |
| 224.5 °C | N#Cc1cc(-c2ccc(F)c(F)c2)c2c(c1)cc1n2CCCNC1=O [Example 217, 7-(3,4-Difluorophenyl)-1-oxo-2,3,4,5-tetrahydro-[1,4]diazepino[1,2-a]indole-9-carbonitrile] | 0.51 µM |
| 247 °C | COc1ccc(-c2cccc3cc4n(c23)[C@H](C)CNC4=O)cc1 [Example 2, (R)-6-(4-Methoxy-phenyl)-4-methyl-3,4-dihydro-2H-pyrazino[1,2-a]indol-1-one] | 0.85 µM |
| 236.5 °C | Cc1c2n(c3c(-c4ccc(Cl)cc4)cc(Cl)cc13)CCNC2=O [Example 65, 8-Chloro-6-(4-chloro-phenyl)-10-methyl-3,4-dihydro-2H-pyrazino[1,2-a]indol-1-one] | 0.019 µM |
| 363 °C | N#Cc1ccc(-c2cc(C#N)cc3cc4n(c23)CCNC4=O)cc1 [Example 176, 6-(4-Cyano-phenyl)-1-oxo-1,2,3,4-tetrahydro-pyrazino[1,2-a]indole-8-carbonitrile] | 0.17 µM |
| 265.5 °C | N#Cc1cc(-c2ccccc2)c2c(c1)cc1n2CCNC1=O [Example 93, 1-Oxo-6-phenyl-1,2,3,4-tetrahydro-pyrazino[1,2-a]indole-8-carbonitrile] | 0.035 µM |
| 245 °C | Cc1c2n(c3c(-c4ccc(Cl)c(Cl)c4)cc(C#N)cc13)CCNC2=O [Example 260, 6-(3,4-Dichlorophenyl)-10-methyl-1-oxo-3,4-dihydro-2H-pyrazino[1,2-a]indole-8-carbonitrile] | 0.12 µM |
| 275 °C | N#Cc1cc(-c2ccnc(F)c2)c2c(c1)cc1n2CCCNC1=O [Example 220, 7-(2-Fluoropyridin-4-yl)-1-oxo-2,3,4,5-tetrahydro-[1,4]diazepino[1,2-a]indole-9-carbonitrile] | 0.5 µM |
| 278.5 °C | N#Cc1cc(-c2ccncc2)c2c(c1)cc1n2CCCNC1=O [Example 271, 1-Oxo-7-pyridin-4-yl-2,3,4,5-tetrahydro-[1,4]diazepino[1,2-a]indole-9-carbonitrile] | 0.65 µM |
| 276 °C | COc1cc(-c2ccc(C(F)(F)F)cc2)c2c(c1)cc1n2CCNC1=O [Example 213, 8-Methoxy-6-[4-(trifluoromethyl)-phenyl]-3,4-dihydro-2H-pyrazino[1,2-a]indol-1-one] | 0.8 µM |
| 258.5 °C | Cc1cc(-c2ccc(Cl)cc2)c2c(c1)cc1n2CCCNC1=O [Example 58, 7-(4-Chloro-phenyl)-9-methyl-2,3,4,5-tetrahydro-[1,4]diazepino[1,2-a]indol-1-one] | 1.51 µM |
| 207.5 °C | COc1ccc(-c2cc(F)c(F)c3cc4n(c23)CCCNC4=O)cc1 [Example 37, 9,10-Difluoro-7-(4-methoxy-phenyl)-2,3,4,5-tetrahydro-[1,4]diazepino[1,2-a]indol-1-one] | 0.45 µM |
| 221.5 °C | N#Cc1cc(-c2ccc(Cl)c(F)c2)c2c(c1)cc1n2CCCNC1=O [Example 252, 7-(4-Chloro-3-fluorophenyl)-1-oxo-2,3,4,5-tetrahydro-[1,4]diazepino[1,2-a]indole-9-carbonitrile] | 1.38 µM |
| 261 °C | Cc1c2n(c3c(-c4cccc(F)c4)cc(C#N)cc13)CCCNC2=O [Example 289, 7-(3-Fluorophenyl)-11-methyl-1-oxo-2,3,4,5-tetrahydro-[1,4]diazepino[1,2-a]indole-9-carbonitrile] | 0.035 µM |
| 289.5 °C | N#Cc1cc(-c2ccc(F)c(F)c2)c2c(c1)cc1n2CCNC1=O [Example 76, 6-(3,4-Difluoro-phenyl)-1-oxo-1,2,3,4-tetrahydro-pyrazino[1,2-a]indole-8-carbonitrile] | 0.02 µM |
| 274.5 °C | COc1ccc(-c2cc(F)cc3cc4n(c23)CCNC4=O)cc1 [Example 19, 8-Fluoro-6-(4-methoxy-phenyl)-3,4-dihydro-2H-pyrazino[1,2-a]indol-1-one] | 0.007 µM |

| melting point | Structure (SMILES) | EC (150% of control) [1] |
| --- | --- | --- |
| 209.5 °C | Cc1c2n(c3c(-c4ccc(Cl)cc4)cc(F)cc13)CCNC2=O [Example 73, 6-(4-Chloro-phenyl)-8-fluoro-10-methyl-3,4-dihydro-2H-pyrazino[1,2-a]indol-1-one] | 0.017 µM |
| 256 °C | Cc1c2n(c3c(-c4ccc(N(C)C)cc4)cc(F)cc13)CCNC2=O [Example 145, 6-(4-Dimethylamino-phenyl)-8-fluoro-10-methyl-3,4-dihydro-2H-pyrazino[1,2-a]indol-1-one] | 0.017 µM |
| 196 °C | COc1ccc(-c2cc(Cl)cc3c(C)c4n(c23)CCNC4=O)cn1 [Example 111, 8-Chloro-6-(6-methoxy-pyridin-3-yl)-10-methyl-3,4-dihydro-2H-pyrazino[1,2-a]indol-1-one] | 0.015 µM |
| 286.5 °C | N#Cc1cc(-c2ccnc(Cl)c2)c2c(c1)cc1n2CCCNC1=O [Example 257, 7-(2-Chloropyridin-4-yl)-1-oxo-2,3,4,5-tetrahydro-[1,4]diazepino[1,2-a]indole-9-carbonitrile] | 0.54 µM |
| 332 °C | Cc1c2n(c3c(-c4ccc(S(C)(=O)=O)cc4)cc(C#N)cc13)CCNC2=O [Example 294, 10-Methyl-6-(4-methylsulfonylphenyl)-1-oxo-3,4-dihydro-2H-pyrazino[1,2-a]indole-8-carbonitrile] | 0.27 µM |
| 252.5 °C | Cc1c2n(c3c(-c4cccnc4)cc(Cl)cc13)CCNC2=O [Example 137, 8-Chloro-10-methyl-6-pyridin-3-yl-3,4-dihydro-2H-pyrazino[1,2-a]indol-1-one] | 0.088 µM |
| 206 °C | Cc1ccc(-c2cc(F)cc3c(C)c4n(c23)CCNC4=O)cc1F [Example 147, 8-Fluoro-6-(3-fluoro-4-methyl-phenyl)-10-methyl-3,4-dihydro-2H-pyrazino[1,2-a]indol-1-one] | 0.039 µM |
| 248 °C | Cc1c2n(c3c(-c4ccc(N(C)C)nc4)cc(Cl)cc13)CCNC2=O [Example 154, 8-Chloro-6-(6-dimethylamino-pyridin-3-yl)-10-methyl-3,4-dihydro-2H-pyrazino[1,2-a]indol-1-one] | 0.022 µM |
| 280 °C | Cc1c2n(c3c(-c4ccc(F)nc4)cc(C#N)cc13)CCCNC2=O [Example 209, 7-(6-Fluoropyridin-3-yl)-11-methyl-1-oxo-2,3,4,5-tetrahydro-[1,4]diazepino[1,2-a]indole-9-carbonitrile] | 0.16 µM |
| 254 °C | Cc1c2n(c3c(-c4ccc(N)nc4)cc(F)cc13)CCNC2=O [Example 160, 6-(6-Amino-pyridin-3-yl)-8-fluoro-10-methyl-3,4-dihydro-2H-pyrazino[1,2-a]indol-1-one] | 0.18 µM |
| 130 °C | Cc1c2n(c3c(-c4ccc(F)c(F)c4F)cc(F)cc13)CCNC2=O [Example 151, 8-Fluoro-10-methyl-6-(2,3,4-trifluoro-phenyl)-3,4-dihydro-2H-pyrazino[1,2-a]indol-1-one] | 0.035 µM |
| 253 °C | Cc1c2n(c3c(-c4ccccc4)cc(C#N)cc13)CCNC2=O [Example 241, 10-Methyl-1-oxo-6-phenyl-3,4-dihydro-2H-pyrazino[1,2-a]indole-8-carbonitrile] | 0.062 µM |
| 270 °C | Cc1c2n(c3c(-c4ccnc(Cl)c4)cc(Cl)cc13)CCNC2=O [Example 119, 8-Chloro-6-(2-chloro-pyridin-4-yl)-10-methyl-3,4-dihydro-2H-pyrazino[1,2-a]indol-1-one] | 0.16 µM |
| 237 °C | Cc1c2n(c3c(-c4ccc(F)cc4F)cc(C#N)cc13)CCNC2=O [Example 179, 6-(2,4-Difluoro-phenyl)-10-methyl-1-oxo-1,2,3,4-tetrahydro-pyrazino[1,2-a]indole-8-carbonitrile] | 0.013 µM |
| 187 °C | N#Cc1cc(-c2ccc(F)c(F)c2F)c2c(c1)cc1n2CCCNC1=O [Example 284, 1-Oxo-7-(2,3,4-trifluorophenyl)-2,3,4,5-tetrahydro-[1,4]diazepino[1,2-a]indole-9-carbonitrile] | 0.16 µM |
| 265 °C | Cc1c2n(c3c(-c4cc(F)cc(F)c4)cc(C#N)cc13)CCCNC2=O [Example 290, 7-(3,5-Difluorophenyl)-11-methyl-1-oxo-2,3,4,5-tetrahydro-[1,4]diazepino[1,2-a]indole-9-carbonitrile] | 0.29 µM |
| 289 °C | Cc1c2n(c3c(-c4cncnc4)cc(F)cc13)CCNC2=O [Example 155, 8-Fluoro-10-methyl-6-pyrimidin-5-yl-3,4-dihydro-2H-pyrazino[1,2-a]indol-1-one] | 0.57 µM |
